Where two headings read alike, the source gives them in different places.
What was measured:
THP-1 cells = experiment: Measurement of IL-1β production, hTRF protocol (second alternative procedure), THP-1 cells; assay type: cell-based, human; settings: read-out: NLRP3 hILIB EC50
Outline: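 Compounds, dilution series starting at a final 10 μM, were incubated 2 hours at 37° C with PMA-differentiated THP-1 cells (50 ng/ml overnight; 50,000 cells/well, 2% FBS RPMI). Released IL-1β quantified in supernatant by hTRF kit with 1:40 antibody dilution, 4° C overnight, 665/615 nm ratio.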

TLR7 = target: T1, TLR7 (Homo sapiens, UniProt Q9NYK1); experiment: In vitro human TLR7 binding reporter assay (HEK-Blue, NF-kB/AP1-inducible SEAP); assay type: cell-based; settings: read-out: TLR7 Agonist EC50
T1 construct: human HEK-Blue cells co-expressing a TLR7 or TLR8 gene
T1 sequence (Q9NYK1 27-1049): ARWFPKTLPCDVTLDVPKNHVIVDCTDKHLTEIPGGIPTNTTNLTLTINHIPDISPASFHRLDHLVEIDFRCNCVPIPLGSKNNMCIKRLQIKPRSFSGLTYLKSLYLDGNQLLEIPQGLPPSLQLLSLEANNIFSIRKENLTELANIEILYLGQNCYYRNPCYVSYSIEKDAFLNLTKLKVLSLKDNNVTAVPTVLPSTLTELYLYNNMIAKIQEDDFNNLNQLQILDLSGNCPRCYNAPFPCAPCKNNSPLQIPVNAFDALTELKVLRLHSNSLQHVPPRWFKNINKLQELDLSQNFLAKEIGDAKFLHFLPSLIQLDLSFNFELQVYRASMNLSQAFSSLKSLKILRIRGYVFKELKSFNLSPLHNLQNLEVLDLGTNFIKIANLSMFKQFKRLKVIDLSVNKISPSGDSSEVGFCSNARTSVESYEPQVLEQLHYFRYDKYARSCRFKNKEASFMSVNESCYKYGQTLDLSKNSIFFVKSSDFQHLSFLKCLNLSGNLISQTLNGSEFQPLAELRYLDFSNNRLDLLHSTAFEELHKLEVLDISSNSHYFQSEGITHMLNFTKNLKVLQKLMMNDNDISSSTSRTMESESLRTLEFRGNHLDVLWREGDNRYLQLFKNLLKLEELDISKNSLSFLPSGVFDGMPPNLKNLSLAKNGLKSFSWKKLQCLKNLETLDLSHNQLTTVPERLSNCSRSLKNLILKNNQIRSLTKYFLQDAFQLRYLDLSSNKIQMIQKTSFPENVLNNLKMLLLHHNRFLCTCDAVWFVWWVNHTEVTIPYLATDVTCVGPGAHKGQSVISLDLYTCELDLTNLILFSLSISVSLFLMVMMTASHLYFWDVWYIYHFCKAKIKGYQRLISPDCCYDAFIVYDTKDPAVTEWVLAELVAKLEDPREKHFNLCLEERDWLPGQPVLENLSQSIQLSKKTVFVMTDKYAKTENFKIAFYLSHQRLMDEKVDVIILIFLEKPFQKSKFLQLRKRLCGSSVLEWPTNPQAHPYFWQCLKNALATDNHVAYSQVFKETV
Outline: (§1)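 Cells are seeded and grown for 24 h. Compounds or DMSO are then added and incubated 18 h at 37 °C. Quanti-Blue is added, and SEAP is read after thirty minutes. EC50 values are normalized, with RLU from 50 μM reference standard setting 100% Ymax.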

TLR8 = target: T2, TLR8 (Homo sapiens, UniProt Q9NR97); experiment: In vitro human TLR8 binding reporter assay (HEK-Blue, NF-kB/AP1-inducible SEAP); assay type: cell-based; settings: read-out: TLR8 Agonist EC50
T2 construct: human HEK-Blue cells co-expressing a TLR7 or TLR8 gene
T2 sequence (Q9NR97 27-1041): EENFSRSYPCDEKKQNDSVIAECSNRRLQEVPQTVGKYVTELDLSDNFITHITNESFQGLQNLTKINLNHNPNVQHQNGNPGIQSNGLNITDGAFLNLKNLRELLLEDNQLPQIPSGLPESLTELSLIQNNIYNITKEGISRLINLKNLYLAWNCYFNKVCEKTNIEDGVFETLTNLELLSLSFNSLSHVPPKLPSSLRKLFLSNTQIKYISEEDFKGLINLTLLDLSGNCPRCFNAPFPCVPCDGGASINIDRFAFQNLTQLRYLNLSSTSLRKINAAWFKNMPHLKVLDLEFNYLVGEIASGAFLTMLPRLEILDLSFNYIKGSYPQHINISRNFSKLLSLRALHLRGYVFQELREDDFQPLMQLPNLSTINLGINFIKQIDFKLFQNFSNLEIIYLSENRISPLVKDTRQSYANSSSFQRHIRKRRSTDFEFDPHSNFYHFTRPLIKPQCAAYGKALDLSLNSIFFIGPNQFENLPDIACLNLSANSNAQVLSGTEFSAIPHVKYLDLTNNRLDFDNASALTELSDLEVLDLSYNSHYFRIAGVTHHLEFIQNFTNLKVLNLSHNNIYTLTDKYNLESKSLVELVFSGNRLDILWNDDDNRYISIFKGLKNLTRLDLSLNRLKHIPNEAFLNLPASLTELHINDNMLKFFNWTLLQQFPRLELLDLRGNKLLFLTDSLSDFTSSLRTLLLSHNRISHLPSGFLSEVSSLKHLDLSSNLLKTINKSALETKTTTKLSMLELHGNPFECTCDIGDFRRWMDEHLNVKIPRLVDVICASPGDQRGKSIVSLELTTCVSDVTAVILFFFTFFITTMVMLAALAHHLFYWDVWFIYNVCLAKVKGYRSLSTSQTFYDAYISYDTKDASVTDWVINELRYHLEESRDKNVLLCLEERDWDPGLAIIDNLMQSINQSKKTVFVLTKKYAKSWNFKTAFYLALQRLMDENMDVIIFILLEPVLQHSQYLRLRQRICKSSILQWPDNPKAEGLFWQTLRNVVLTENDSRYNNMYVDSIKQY
Outline: as §1

[1] = Homo sapiens, THP-1, IL-1β production, human
[2] = Homo sapiens, THP-1, IL-1β production, human cells

SMILES | EC50 (THP-1 cells; [1]) [µM] | EC50 (TLR7; activity range class) [µM] | EC50 (TLR8; activity range class) [µM] | EC50 (THP-1 cells; [2]) [µM] | EC50 (TLR7; activity range) [µM] | EC50 (TLR8; activity range) [µM] | EC50 (THP-1 cells; IL-1β production, human) [µM]
Nc1nc2cc(-c3ccn[nH]3)ccc2c2cn(CC(F)F)nc12 [Example 192] | 0.09 | > 100 | > 100 | – | – | – | –
NCCn1cc2c(N)nc3cc(-c4cc[nH]n4)ccc3c2n1 [Example 149, 2-(2-aminoethyl)-7-(1H-pyrazol-3-yl)-2H-pyrazolo[4,3-c]quinolin-4-amine] | 0.38 | > 100 | > 100 | – | – | – | –
Cc1cc(C(=O)NCCn2cc3c(n2)c(N)nc2cc(-c4cc[nH]n4)ccc23)nn1C [Example 45] | 1.41 | > 100 | > 100 | – | – | – | –
Nc1nc2cc(-c3cc[nH]n3)ccc2c2nn(CCO)cc12 [Example 209, 2-(4-amino-7-(1H-pyrazol-3-yl)-2H-pyrazolo[4,3-c]quinolin-2-yl)ethan-1-ol] | 0.19 | > 100 | > 100 | – | – | – | –
Nc1nc2cc(-c3cc[nH]n3)ccc2c2nn(CCNC(=O)C3CCCCO3)cc12 (stereo not drawn) [Example 199] | 4.44 | > 100 | > 100 | – | – | – | –
CS(=O)(=O)CCCn1cc2c(n1)c(N)nc1cc(-c3cc[nH]n3)ccc12 [Example 171] | 0.6 | > 100 | > 100 | – | – | – | –
Nc1nc2cc(-c3cc[nH]n3)ccc2c2nn(CC(O)CF)cc12 (single isomer, unassigned) [Example 377] | – | > 100 | > 100 | – | – | – | 0.45
Nc1nc2cc(-c3cc[nH]n3)ccc2c2nn(CCNC(=O)c3csc(Cl)n3)cc12 [Example 151, N-{2-[4-amino-7-(1H-pyrazol-3-yl)-2H-pyrazolo[4,3-c]quinolin-2-yl]ethyl}-2-chloro-1,3-thiazole-4-carboxamide] | 0.06 | > 100 | > 100 | – | – | – | –
CCC(=O)NCCc1cc2c(N)nc3cc(-c4ccn[nH]4)ccc3c2[nH]1 [Example 154, N-{2-[4-amino-7-(1H-pyrazol-5-yl)-1H-pyrrolo[3,2-c]quinolin-2-yl]ethyl}propanamide] | 1 | > 100 | > 100 | – | – | – | –
Nc1nc2cc(-c3cc[nH]n3)ccc2c2cn(CCNC(=O)c3ccc(C(F)(F)F)cn3)nc12 [Example 62] | 0.28 | 20 to 100 | > 100 | – | – | – | –
CS(=O)(=O)CCCn1cc2c(N)nc3cc(-c4cc[nH]n4)ccc3c2n1 [Example 211] | 0.63 | > 100 | > 100 | – | – | – | –
Nc1nc2cc(-c3cc[nH]n3)ccc2c2nn(C3CCCC3O)cc12 (single isomer, unassigned) [Example 340] | – | > 100 | > 100 | – | – | – | 0.62
Nc1nc2cc(-c3cc[nH]n3)ccc2c2cn(CCNC(=O)c3cnn4cccnc34)nc12 [Example 101] | 2.39 | > 100 | > 100 | – | – | – | –
Nc1nc2cc(-c3cc[nH]n3)ccc2c2nn(CC3(CO)CC3)cc12 [Example 353] | 0.61 | > 100 | > 100 | – | – | – | –
Nc1nc2cc(-c3cc[nH]n3)ccc2c2cn(CCNC(=O)c3cnc4ccccn4c3=O)nc12 [Example 98] | 1.59 | > 100 | > 100 | – | – | – | –
CS(=O)(=O)CCCn1ncc2c(N)nc3cc(-c4cc[nH]n4)ccc3c21 [Example 212] | 4.37 | > 100 | > 100 | – | – | – | –
N#CC1(C(=O)NCCn2cc3c(N)nc4cc(-c5cc[nH]n5)ccc4c3n2)CC1 [Example 291] | 4.65 | > 100 | > 100 | – | – | – | –
Nc1nc2cc(-c3cc[nH]n3)ccc2c2cn(CCNCc3cccc(F)c3)nc12 [Example 106] | 1.91 | 20 to 100 | 20 to 100 | – | – | – | –
COc1ccccc1C(=O)NCCn1cc2c(n1)c(N)nc1cc(-c3cc[nH]n3)ccc12 [Example 81] | 0.68 | > 100 | 20 to 100 | – | – | – | –
Cc1nc(C(=O)NCCn2cc3c(n2)c(N)nc2cc(-n4cccn4)ccc23)co1 [Example 183] | 0.11 | > 100 | 20 to 100 | – | – | – | –

The next lines start with the values.

EC50 (THP-1 cells; [1]) [µM] | EC50 (TLR7; activity range class) [µM] | EC50 (TLR8; activity range class) [µM] | EC50 (THP-1 cells; [2]) [µM] | EC50 (TLR7; activity range) [µM] | EC50 (TLR8; activity range) [µM] | EC50 (THP-1 cells; IL-1β production, human) [µM] | SMILES
– | – | – | 4.47 | > 100 | > 100 | – | CC(C(=O)N1CC(O)C1)n1cc2c(N)nc3cc(-c4ccn[nH]4)ccc3c2n1 (stereo not drawn) [Example 579]
– | – | – | 0.15 | > 100 | > 100 | – | Nc1nc2cc(-c3cc[nH]n3)ccc2c2[nH]c(CCNC(=O)c3cc(F)ccn3)cc12 [Example 416]
– | – | – | 0.96 | > 100 | > 100 | – | CNC(=O)CCn1cc2c(n1)c(N)nc1cc(-c3cc[nH]n3)ccc12 [Example 535]
– | – | – | 0.7 | > 100 | > 100 | – | CCS(=O)(=O)CCn1cc2c(n1)c(N)nc1cc(-c3cc[nH]n3)ccc12 [Example 526]
– | – | – | 14 | > 100 | > 100 | – | CC(C(=O)NC(C)(C)CO)n1cc2c(N)nc3cc(-c4ccn[nH]4)ccc3c2n1 (stereo not drawn) [Example 574]
– | – | – | 2.07 | > 100 | > 100 | – | Nc1nc2cc(-c3cc[nH]n3)ccc2c2[nH]c(CCNC(=O)c3cccc(O)n3)cc12 [Example 519]
– | – | – | 3.3 | > 100 | > 100 | – | COCCN(C)C(=O)C(C)n1cc2c(N)nc3cc(-c4ccn[nH]4)ccc3c2n1 (stereo not drawn) [Example 582]
– | – | – | 0.33 | > 100 | > 100 | – | NC(=O)Cn1cc2c(N)nc3cc(-n4cccn4)ccc3c2n1 [Example 555]
– | – | – | 9.89 | > 100 | > 100 | – | CN1CCN(C(=O)Cn2cc3c(n2)c(N)nc2cc(-c4cc[nH]n4)ccc23)CC1 [Example 552]
– | – | – | 0.46 | > 100 | > 100 | – | CNC(=O)Cn1cc2c(N)nc3cc(-n4cccn4)ccc3c2n1 [Example 554]
– | – | – | 2.01 | > 100 | > 100 | – | CC(C)(O)CCn1ncc2c(N)nc3cc(-c4cc[nH]n4)ccc3c21 [Example 427]
– | – | – | 0.35 | > 100 | > 100 | – | COCCNCc1cc2c(N)nc3cc(-c4cc[nH]n4)ccc3c2[nH]1 [Example 419]
– | – | – | 7.3 | > 100 | > 100 | – | CC(C)(C(=O)N1CC(F)(F)C1)n1cc2c(N)nc3cc(-c4cc[nH]n4)ccc3c2n1 [Example 523]

Reference: patent US12037344B2, “NLRP3 modulators” (INNATE TUMOR IMMUNITY, INC., priority 2018, dated 2024)
